These results are taken from article PMC3190643 (Journal of medicinal chemistry, 2011).

For data set [1] the following is noted: cited from earlier work.
For data set [2] the following is noted: for plasma concentration: IV dose of 3, mice, normalized to 8.13 mg/kg.
A short description of data set [3]: Metabolic stability in human liver microsomes. It is filed as in vitro ADME. The conditions noted are these: pH 7.4.
A short description of data set [4]: Metabolic stability in rat liver microsomes. It is filed as in vitro ADME. The settings on record: pH 7.4.
The subject of data set [5] is Salmonella typhimurium Ames II mixed strains (TA7001 to TA7006) and tester strain TA98. The data set is described as follows: Ames II mutagenicity assay. The conditions noted are these: with and without rat S9 activation, up to 1 mg/mL. A general note: In the Ames test, an excess of revertant colonies over the control signals mutagenicity.
Another data set in a line: in vivo. The settings on record: male, C57Bl/6J, mouse, iv.
A short description of data set [6]: Metabolic stability in mouse liver microsomes. The format is in vitro ADME. The conditions noted are these: calculated from in vitro half-life; for CLint scaled at 100 μM: mouse, microsomes, pH 7.4, CLint,app.
Data set [7] addresses catalytic domain of human recombinant MMP-9 (Homo sapiens, UniProt P14780). The settings on record: slow-binding.
Data set [8] concerns the target T1, Human recombinant active MMP-2 (Homo sapiens, UniProt P08253).
T1 sequence (P08253 110-660): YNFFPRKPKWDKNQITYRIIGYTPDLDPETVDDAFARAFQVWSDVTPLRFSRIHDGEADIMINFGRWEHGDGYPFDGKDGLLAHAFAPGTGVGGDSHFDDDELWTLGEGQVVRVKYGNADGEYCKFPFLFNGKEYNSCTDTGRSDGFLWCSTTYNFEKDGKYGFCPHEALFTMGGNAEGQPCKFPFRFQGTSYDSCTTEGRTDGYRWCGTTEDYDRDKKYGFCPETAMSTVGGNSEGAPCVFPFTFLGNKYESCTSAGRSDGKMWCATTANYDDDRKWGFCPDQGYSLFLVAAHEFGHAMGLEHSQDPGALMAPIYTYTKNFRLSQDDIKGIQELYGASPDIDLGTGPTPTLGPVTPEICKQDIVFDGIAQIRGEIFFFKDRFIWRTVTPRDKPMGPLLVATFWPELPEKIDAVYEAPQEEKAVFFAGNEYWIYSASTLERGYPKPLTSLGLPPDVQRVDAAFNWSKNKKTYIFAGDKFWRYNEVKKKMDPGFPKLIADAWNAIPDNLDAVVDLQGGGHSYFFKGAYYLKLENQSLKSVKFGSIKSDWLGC
The conditions noted are these: slow-binding.

The target in data set [9] is catalytic domain of MMP-14 (Homo sapiens, UniProt P50281). The settings on record: slow-binding.
For data set [10] the following is noted: humans; cited from earlier work.
Setting [11] is: t½ α (distribution half life), IV dose of 5d […], mice.
The mark [12] stands for this setting: t½ β (terminal half life), IV dose of 5d […], mice.

Structures can show the parent of a compound that is named as a salt. Where two headings read alike, the source gives them in different places.

catalytic domain of human recombinant MMP-9, sequence (P14780 107-444 limits assumed): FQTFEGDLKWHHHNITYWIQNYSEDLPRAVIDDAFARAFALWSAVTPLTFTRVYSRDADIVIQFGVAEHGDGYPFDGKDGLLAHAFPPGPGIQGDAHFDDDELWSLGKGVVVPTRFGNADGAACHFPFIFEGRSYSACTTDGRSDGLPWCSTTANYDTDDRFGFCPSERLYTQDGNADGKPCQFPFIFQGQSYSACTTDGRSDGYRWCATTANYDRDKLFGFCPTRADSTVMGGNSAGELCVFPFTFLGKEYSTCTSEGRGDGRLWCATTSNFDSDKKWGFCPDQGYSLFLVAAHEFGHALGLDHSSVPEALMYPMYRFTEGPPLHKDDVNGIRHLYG

As for `O=S(=O)(CC1CS1)c1ccc(Oc2ccccc2)cc1` (stereo not drawn) [Compound 1, (4-phenoxyphenylsulfonyl)methylthiirane], in data set [1], the “intrinsic clearance in the rat” value is reported as 117 mL/min/kg and the “t½ in rat liver microsomes” value is 12.0 min.
Usually CLint scaled stands for a measure of how fast metabolising enzymes remove a compound, apart from limits set by blood flow. By Vd is commonly meant the apparent volume that relates the amount in the body to the concentration in plasma or blood. The term clearance denotes a measure of how efficiently the substance is removed, as volume per time. High values mean a high capacity for elimination, low ones a low capacity for elimination. In general, half-life refers to the time needed for the level to fall by half in the phase considered. Higher therefore signals slow decline. Regarding `Nc1ccc(Oc2ccc(S(=O)(=O)CC3CS3)cc2)cc1` (stereo not drawn) [Compound 3, 4-[4-((Thiiran-2-yl)methylsulfonyl)phenoxy]benazamine · HCl salt], the “time plasma levels were higher than the Ki for MMP-9” value in data set [2] (male, C57Bl/6J, mouse, in vivo) turned out to be 20 min. For the same molecule, the intrinsic metabolic clearance (CLint scaled) at 100 μM in data set [3] is less than 10 mL/min/kg; in [4] it was 60 ± 1.8 mL/min/kg; in data set [6], 103 mL/min/kg. In addition, the “Ames II mutagenicity response” value in data set [5] was “negative (non-mutagenic)”. This molecule also came in with a Vd in “in vivo” of 0.0125 L. This molecule also returned a clearance in “in vivo” of 87.5 mL/min/kg. Besides, the half-life was found to be 2.9 min in “in vivo” (setting [11]) and 69 min in “in vivo” (setting [12]). For the same molecule, the “CLint,app” value in data set [6] was 102.8 ± 7.9 mL/min/kg.
`NCC(=O)Nc1ccc(Oc2ccc(S(=O)(=O)CC3CS3)cc2)cc1` (stereo not drawn) [Compound 5a]: in [7], the “10^4koff, MMP-9 catalytic domain” value stood at 6.5 ± 0.6 s^−1 and the “10^−3kon, MMP-9 catalytic domain” value turned out to be 0.21 ± 0.04 M^−1s^−1. For the same molecule, in data set [8], the “10^4koff, MMP-2” value was found to be 8.2 ± 0.9 s^−1 and the “10^−3kon, MMP-2” value was found to be 1.9 ± 0.6 M^−1s^−1.
For `NCCCC[C@H](N)C(=O)Nc1ccc(Oc2ccc(S(=O)(=O)CC3CS3)cc2)cc1` (stereo partly drawn) [Compound 5b], in data set [7], the “10^4koff, MMP-9 catalytic domain” value is listed as 4.2 ± 0.7 s^−1 and the “10^−3kon, MMP-9 catalytic domain” value amounted to 0.27 ± 0.04 M^−1s^−1. In addition, in data set [8], the “10^4koff, MMP-2” value was determined as 2.1 ± 0.9 s^−1 and the “10^−3kon, MMP-2” value turned out to be 3.4 ± 0.1 M^−1s^−1.
With `N[C@@H](CCC(=O)O)C(=O)Nc1ccc(Oc2ccc(S(=O)(=O)CC3CS3)cc2)cc1` (stereo partly drawn) [Compound 5c], in [7], the “10^4koff, MMP-9 catalytic domain” value is given as 12.0 ± 0.7 s^−1 and the “10^−3kon, MMP-9 catalytic domain” value came to 0.28 ± 0.02 M^−1s^−1. In addition, in data set [8], the “10^4koff, MMP-2” value worked out at 1.8 ± 1.6 s^−1 and the “10^−3kon, MMP-2” value stood at 2.5 ± 0.1 M^−1s^−1.
Turning to `N=C(N)NCCC[C@H](N)C(=O)Nc1ccc(Oc2ccc(S(=O)(=O)CC3CS3)cc2)cc1` (stereo partly drawn) [Compound 5d], the CLint scaled at 100 μM was less than 10 mL/min/kg in data set [3], 23.7 ± 1.8 mL/min/kg in data set [4] and less than 47 mL/min/kg in data set [6]. In data set [4], this molecule came in with a half-life at 100 μM of no less than 60 min. Besides, in data set [5], the “Ames II mutagenicity response” value was “negative (non-mutagenic)”. Further, the Vd in the data set “in vivo” was found to be 0.0978 L/kg. In the data set “in vivo”, this molecule yielded a clearance of 58.2 mL/min/kg. Further, the half-life in the data set “in vivo” (elimination (terminal) half life t½ β, IV dose of 5d […], mice) is greater than 240 min; in “in vivo” (setting [11]) it was less than 1 min; in the data set “in vivo” (setting [12]), 260 min.
`Nc1ccc(Oc2ccc(S(=O)(=O)CC3CS3)cc2)cc1O` (stereo not drawn) [Compound 13, 2-Amino-5-(4-((thiiran-2-ylmethyl)sulfonyl)phenoxy)phenol]: in [7], the “10^4koff, MMP-9 catalytic domain” value worked out at 5.3 ± 1.0 s^−1 and the “10^−3kon, MMP-9 catalytic domain” value is reported as 1.1 ± 0.1 M^−1s^−1. Moreover, in data set [8], the “10^4koff, MMP-2” value amounted to 1.4 ± 0.7 s^−1 and the “10^−3kon, MMP-2” value is on record as 1.7 ± 0.1 M^−1s^−1. Further, in data set [9], the “10^4koff, MMP-14 catalytic domain” value is given as 7.0 ± 1.6 s^−1 and the “10^−3kon, MMP-14 catalytic domain” value was 2.7 ± 0.3 M^−1 s^−1.
Consider `CC(=O)Nc1ccc(Oc2ccc(S(=O)(=O)CC3CS3)cc2)cc1` (stereo not drawn) [Compound M3], for which the plasma concentration in data set [2] (2-3 min) was 197 ± 61.6 nM; in data set [2] (4-5 min) it was 462 ± 313 nM; in [2] (7-8 min), 192 ± 12.1 nM; in [2] (11-12 min) it was 150 ± 27.2 nM; in data set [2] (62-66 min), 27.3 ± 6.28 nM. Besides, the half-life in “in vivo” (setting [11]) was determined as 12 min; in the data set “in vivo” (t½ α, IV dose of 3, mice) it was 5.1 min.
For the molecule `CC(C)c1cccc(C(C)C)c1O` [propofol], in [10], the Vd is 12.4 L/kg.
